“Also recorded” adds a separate entry of the source.
How the values were obtained:
[1] = tested on: human naïve T cells; test: Stimulation of blood derived naïve T cells with Der p1 (house dust mite) antigen; type: cell-based; details: human naïve T cells, Der p1 antigen 5 days; 0.1-100 μM; FIG. 14
Description: Naïve T cells from peripheral blood samples were collected and processed using MACSxpress® Whole Blood Pan T Cell Isolation Kit (Miltenyi Biotec), according to the manufacturer's protocol. Isolated naïve T cells were cultured in RPMI medium supplemented with 5% Fetal Bovine Serum (FBS) at 37° C. with 5% (v/v) CO2. T cells were seeded in 24 well plates at a density of 0.5×10^6 cells per well. The cells were pre-treated with the compounds (0, 0.1, 1.0, 10, 100 μM) for 1 hour prior to stimulation. Cells were stimulated with […] of Dermatophagoides pteronyssinus (Der p1) antigen. After 48 hours, fresh […] of Der p1 was added and continued incubating for a further 72 hours at 37° C. with 5% (v/v) CO2. Overall T cells were stimulated with […] of Der p1 antigen for 5 days before supernatants were collected and stored at −80° C. until quantitative detection assays are performed.
Human Interleukin-4 (IL-4), Interleukin-5 (IL-5), Interleukin-6 (IL-6), Interleukin-8 (IL-8), Interleukin-13 ([…]), Interleukin-23 (IL-23), and Interferon gamma (IFNγ) released from supernatants collected post stimulation were measured using Human Magnetic Luminex® Assay Kit. Human Transforming Growth Factor beta (TGFβ) was measured using an Enzyme-Linked Immunosorbent Assay (ELISA)-based analysis.

[2] = tested on: esophageal eosinophil infiltrate; test: Eosinophilic esophagitis model, L2-IL5 transgenic mouse sensitized/locally challenged with oxazolone; type: in vivo; details: L2-IL5 mice, OXA, Day 13; for eosinophilia of the esophagus (MBP staining, eosinophils/400× hpf): FIG. 24
Excerpt: From the observation of increased local expression of Interleukin-5 (IL-5) in EoE, transgenic mouse with targeted IL-5 expression to the esophageal squamous epithelia using the Epstein-Barr virus ED-L2 (EBV-ED-L2) gene promoter was generated. […] Even though squamous epithelial-specific IL-5 expression alone induced a significant esophageal eosinophilia encompassing the length of the esophagus, this eosinophilia was not accompanied by the density of histopathological changes such as eosinophilic micro abscesses characteristic of EoE. However, L2-IL5 transgenic mice upon sensitization and subsequent localized topical esophageal challenge with 4-ethoxymethylene-2-phenyl-2-oxazolin-5-one (OXA), a molecule known to induce T-helper cell (Th) type 2 responses, developed key histopathological features, including epithelial hyperplasia and eosinophilic micro abscesses that erupt through the epithelium into the esophageal lumen. Immunohistochemical staining of the eosinophil secondary granule major basic protein (MBP-1) was used to assess the induced esophageal eosinophilia and eosinophil degranulation. […] However, this response was small compared to the induced eosinophilia and associated degranulation that occurred in OXA-treated L2-IL5 transgenic mice (Masterson et al. Gut. 2014, 63, 1-25, which is hereby incorporated by reference in its entirety).
Prior to the OXA sensitization and topical local challenge model of delayed contact hypersensitivity, L2-IL5 transgenic mice were intraperitoneally (IP) injected with compounds or vehicle at 8, 4, and 2 days before sensitization at Day zero (schematic timeline in FIG. 20A). Compounds are prepared by dissolving in dimethyl sulfoxide (DMSO) as master stocks. Fresh working stock compounds in water are prepared for each day of injection and 100 μL of working stock or vehicle is IP injected per mouse. On day zero of the OXA sensitization/local challenge, a 2 cm×2 cm area of abdominal skin of anaesthetized experimental animals was shaved and OXA was applied to the skin surface (150 μl of a 3% (w/v) solution of OXA in 4:1 acetone-olive oil vehicle) to initiate the sensitization phase of the protocol. Sensitized mice then received topical OXA challenges of the esophagus by gavage on protocol Day 5, 8 and 12 after OXA sensitization with 100 μL of a 1% (w/v) solution of OXA in 30% ethanol/olive oil vehicle into the proximal esophagus. In addition, compounds or vehicle were IP injected on Day 5, 8, and 12 after OXA sensitization. All mice were sacrificed, and esophagus collected for histology 24 hours following the last OXA challenge on Day 12 (FIG. 20A). Immunohistochemical staining using a rat monoclonal anti-mouse MBP-1 antibody was conducted to highlight esophageal eosinophil infiltration and localized degranulation. A quantitative assessment of the esophageal eosinophil infiltrate in each group of mice was determined across nine high powered field (hpf) of view, three distal ([…] (Prox)) regions and expressed as group mean data of the eosinophil density (ie, eosinophils/400× hpf) (FIG. 20B). In addition, the eosinophilia is recorded according to the different (epithelial, lamina propia, and muscle) cell layers of the esophagus (FIG. 20C).
of NDM-X in water (20 μL of master stock in […] of water) and 0.231 μg/L of 1 in water (22 μL of master stock in 1078 μL of water) for each injection cohort that are […], respectively. On Day zero of the OXA sensitization/local challenge, a 2 cm×2 cm area of abdominal skin of anaesthetized experimental animals was shaved and OXA was applied to the skin surface to initiate the sensitization phase of the protocol. Sensitized mice then received topical OXA challenges of the esophagus by gavage on protocol Day 5, 8 and 12 after OXA sensitization in the proximal esophagus. […]

[3] = tested on: THP-1 derived macrophages; test: Stimulation of THP-1 cells, cytokine release 72 h post stimulation; type: cell-based, human; details: 72 h post stimulation (IFN-γ + LPS); 0.1, 1, 10, 100 or 200 μM vs 0 μM
Description: Human immortalized monocytic THP-1 cells were maintained in phenol red free RPMI 1640 medium containing 10% (v/v) fetal bovine serum (FBS), 2 mM L-glutamine, penicillin (100 units/mL), streptomycin (100 μg/mL), amphotericin B (2.5 μg/mL), and 50 μM beta-mercaptoethanol (BME) at 37° C. with 5% (v/v) CO2. THP-1 cells were seeded in 1 mL of THP-1 medium (cell culture medium containing 10% (v/v) FBS, 2 mM L-glutamine, penicillin (100 units/mL), streptomycin (100 μg/mL), amphotericin B (2.5 μg/mL), and 50 μM BME)/well at a density of 1 million cells/mL in six-well plates. Cells were differentiated by adding 100 nM phorbol 12-myristate 13-acetate (PMA) to each well before incubating cells for 5.5 h at 37° C. with 5% (v/v) CO2. Without removing the media, different concentrations (either 0, 0.1, 1, 10, 100, or 200 μM) of 1 and 10 were added to each well. Cells were stimulated, within 30 min by adding 20 ng/mL interferon gamma (IFN-γ) and 100 ng/mL lipopolysaccharide (LPS) to each well. Following stimulation, the THP-1 cells were incubated for 72 h at 37° C. with 5% (v/v) CO2. Supernatant was collected and stored at −80° C. until use.
IL-6 release from supernatant collected at 72 hours post stimulation was measured using the AlphaLISA Human IL-6 detection kit.
TNFα release from supernatant collected at 72 hours post stimulation was measured using the AlphaLISA Human TNFα detection kit.

[4] = High Dose IP (0.92 mg/kg 1; 0.77 mg/kg NDM-X), FIG. 21
[5] = Low Dose IP (0.014 mg/kg 1; 0.012 mg/kg NDM-X), FIG. 22

## C[C@H](CC/C=C/C(=O)OC(C)(C)C)O[C@@H]1O[C@@H](C)[C@H](O)C[C@H]1O [Compound 1, tert-butyl (2E,6R)-6-{[(2R,3R,5R,6S)-3,5-dihydroxy-6-methyloxan-2-yl]oxy}hept-2-enoate]
[1]
  percent inhibition relative to Stimulated of IFNγ expression: in a statistically significant, dose-dependent manner
  percent inhibition relative to Stimulated of IL-5 expression: in a statistically significant, dose-dependent manner
  percent inhibition relative to Stimulated of TGFβ expression: in a statistically significant, dose-dependent manner
[2]; 0.092 mg/kg Mid Dose and 0.92 mg/kg High Dose IP, FIG. 23
  eosinophilia of the esophagus, dose dependence: dose-dependently inhibited eosinophilia in the epithelial, lamina propria, and muscle cell layers of the distal, middle, and proximal regions of the esophagus
[2]; 0.92 mg/kg High Dose IP, FIG. 23
  eosinophilia of the esophagus (MBP-1 staining, eosinophils/400× hpf): statistically significant inhibition of the eosinophilic esophagitis observed in epithelial cell layer of distal, middle, and proximal regions of the esophagus; also recorded: statistically significant inhibition of the eosinophilia observed in the lamina propria and muscle cell layers of the middle section of the esophagus; also recorded: statistically significant reduction in eosinophilia observed in all cell layers of the middle and proximal sections as well as the whole esophagus
[2]; [4]
  eosinophilia of the esophagus (MBP-1 staining, eosinophils/400× hpf): statistically significant inhibition of eosinophilic esophagitis in the epithelial, lamina propria, and muscle layers of the distal, middle, and proximal cell layers of the esophagus; also recorded: more robust blocking of eosinophil esophagitis in the mouse model than compared to 0.77 mg/kg NDM-X High Dose
[2]; [5]
  eosinophilia of the esophagus (MBP-1 staining, eosinophils/400× hpf): statistically significant inhibition of the eosinophilia in all cell layers of the proximal region, epithelial cell layer of the distal region, and lamina propria cell layer of the middle section of the esophagus
[3]
  fold change of IL-6 levels secreted by the THP1-derived macrophages: reduced these levels significantly; also recorded: even more significantly reduced
  fold change of TNFα levels secreted by the THP1-derived macrophages: reduced these levels significantly

## C[C@H](CC/C=C/C(=O)O)O[C@@H]1O[C@@H](C)[C@H](O)C[C@H]1O [ascr #7, reference compound]
[1]
  percent inhibition relative to Stimulated of IFNγ expression: statistically significant, robust blocking
  percent inhibition relative to Stimulated of IL-5 expression: dose-dependent inhibition
  percent inhibition relative to Stimulated of TGFβ expression: slight attenuation
[2]; 0.012 mg/kg Low Dose IP, listed as NDM-X
  eosinophilia of the esophagus (MBP staining, eosinophils/400× hpf): slightly better than 0.77 mg/kg High Dose of NDM-X in inhibiting the eosinophilia; also recorded: statistically significant inhibition of the eosinophilia observed in the epithelial, lamina propria, and muscle cell layers of the distal, middle, and proximal regions of the esophagus
[2]; 0.77 mg/kg High Dose IP
  eosinophilia of the esophagus (MBP staining, eosinophils/400× hpf): statistically significant reduction of the eosinophilia in the epithelial and lamina propria cell layers of distal, middle, and proximal regions of the esophagus
[2]; [4]
  eosinophilia of the esophagus (MBP-1 staining, eosinophils/400× hpf): statistically significant reduction in the eosinophilia in the lamina propria and muscle cell layers of the distal, middle, and proximal regions of the esophagus
[2]; [5]
  eosinophilia of the esophagus (MBP-1 staining, eosinophils/400× hpf): statistically significant inhibition of the eosinophilia in all cell layers of the proximal region, the muscle cell layers in all regions, and the epithelial cell layer of the distal and proximal regions
[3]
  fold change of IL-6 levels secreted by the THP1-derived macrophages: significantly reduced

Reference: patent publication US11845770B2, “Ascaroside derivatives and methods of use” (California Institute of Technology, priority 2019, dated 2023)
